Consider 17 compounds from patent US9663478B2, “Benzotriazine oxides as drugs targeting Mycobacterium tuberculosis” (priority 2011, dated 2017).

In one data set the test system is H37Rv. Nature of the data set: MIC H37Rv (Table E1, Additional BTO Activity Data). The class given is cell-based. Conditions: Mycobacterium tuberculosis.
Data set [1] concerns Mtb H37Rv. Nature of the data set: TB MIC - ITR (UIC), Institute for Tuberculosis Research. Conditions: for TB MIC - UIC: Tables P1, P2; for MIC: Mycobacterium tuberculosis, H37RV, Tables 1-4, read-out: TB MIC - ITR. The class given is cell-based, Mycobacterium tuberculosis.
A further data set can be described thus: in vitro. Conditions: African green monkey, VERO Tox (CC50).
In another data set the test system is NRP Mtb H37Rv cells. Nature of the data set: Low-oxygen recovery assay (LORA) MIC. The note with it: for LORA MIC: Tables P1, P2, non-replicating M. tuberculosis; for MIC: Mycobacterium tuberculosis, H37RV, NRP Mtb, Tables 1-4 and text, read-out: LORA MIC - ITR. The class given is cell-based, Mycobacterium tuberculosis.
For data set [2], the system named is Mtb H37Rv. Nature of the data set: TB MIC - SRI, resazurin-based microplate assay. The note with it: Mycobacterium tuberculosis, H37RV, read-out: TB MIC - SRI. It is filed as cell-based, Mycobacterium tuberculosis. For orientation: Resazurin is reduced to fluorescent resorufin, in cell work by metabolically active cells.

Structures are written as SMILES. Converted amounts (≈) assume the structure as drawn.

What is called MIC is the least concentration at which growth counts as inhibited. `CN(Cc1ccccn1)c1n[n+]([O-])c2cc3c(cc2[n+]1[O-])CCC3` [Cmpd 2]: in the data set on H37Rv, the minimum inhibitory concentration (MIC) turned out to be 1 µg/mL (≈ 3.09 µM).

As for `CCNc1n[n+]([O-])c2c(Cl)c(OC)ccc2[n+]1[O-]` [Cmpd 6], in the data set on H37Rv, the MIC was found to be 0.4 µg/mL (≈ 1.48 µM).

In general, CC50 refers to the concentration at which the toxic effect on the cells reaches its halfway point. For `C[C@@H](Nc1n[n+]([O-])c2ccccc2[n+]1[O-])C1CCCCC1` (racemic) [SRI-012261], the TB MIC - UIC in the data set with Mtb H37Rv [1] turned out to be 0.92 µg/mL. The compound further registered a CC50 at 72 h in “in vitro” of 8.9 µg/mL (≈ 30.9 µM). For the same compound, the LORA MIC in the data set on NRP Mtb H37Rv cells stood at 0.36 µg/mL. For the same compound, the MIC with Mtb H37Rv [2] (Tables P1-P3) is 1.25 µg/mL (≈ 4.33 µM).

For the compound `CC(C)(Nc1n[n+]([O-])c2cc3c(cc2[n+]1[O-])CCC3)c1ccc(F)cc1` [Cmpd 5], the lowest concentration to inhibit growth against H37Rv (MIC) was 4.4 µg/mL (≈ 12.4 µM).

On to `[O-][n+]1nc(NC2[C@H]3C[C@@H]4C[C@@H](C[C@H]2C4)C3)[n+]([O-])c2ccccc21` (some centres unmarked) [SRI-012269], for which the TB MIC - UIC in the data set on Mtb H37Rv [1] was found to be 1.91 µg/mL. The 50% cytotoxic concentration (CC50) at 72 h in “in vitro” stood at 7.3 µg/mL (≈ 23.4 µM). Moreover, the LORA MIC with NRP Mtb H37Rv cells stood at 2.33 µg/mL. In the data set with Mtb H37Rv [2] (Tables P1-P3), the MIC was 2.5 µg/mL (≈ 8 µM).

In the data set on H37Rv, `CC1(C)CCc2cc3c(cc21)[n+]([O-])nc(N1CCCC1)[n+]3[O-]` [Cmpd 9] had an MIC of 0.5 µg/mL (≈ 1.66 µM).

In the data set on Mtb H37Rv [1], `[O-][n+]1nc(N[C@@H]2C[C@H]3CC[C@@H]2C3)[n+]([O-])c2ccccc21` (racemic) [SRI-012264] registered a TB MIC - UIC of 0.6 µg/mL. Moreover, it took 3.4 µg/mL (≈ 12.5 µM) to reach half-maximal cytotoxicity in the data set “in vitro” (CC50 at 72 h). Also, the LORA MIC with NRP Mtb H37Rv cells came out at 0.42 µg/mL. Moreover, the MIC in the data set on Mtb H37Rv [2] (Tables P1-P3) was 0.625 µg/mL (≈ 2.3 µM).

With `CCC(COC)Nc1n[n+]([O-])c2cc(F)ccc2[n+]1[O-]` (centres unmarked) [Compound 15ai, 7-fluoro-3-((1-methoxybutan-2-yl)amino)benzo[e][1,2,4]triazine 1,4-dioxide], the MIC in the data set on Mtb H37Rv [1] came out at 2 µg/mL (≈ 7.09 µM); with NRP Mtb H37Rv cells, 1.9 µg/mL (≈ 6.73 µM); in the data set on Mtb H37Rv [2] (Tables 1-4 and text) it was 5 µg/mL (≈ 17.7 µM). It took 6.3 µg/mL (≈ 22.3 µM) to reach half-maximal cytotoxicity in the data set “in vitro” (CC50 at 72 h).

Turning to `CC1CC(Nc2n[n+]([O-])c3ccccc3[n+]2[O-])CC(C)(C)C1` (centres unmarked) [SRI-012270], in the data set with Mtb H37Rv [1], the TB MIC - UIC stood at 0.57 µg/mL. The midpoint of cytotoxicity in the data set “in vitro”, the CC50 at 72 h, lay at 5.2 µg/mL (≈ 17.2 µM). In the data set on NRP Mtb H37Rv cells, the LORA MIC amounted to 0.39 µg/mL. Further, the minimum inhibitory concentration (MIC) with Mtb H37Rv [2] (Tables P1-P3) is 1.25 µg/mL (≈ 4.13 µM).

`CC(C)CCC(C)Nc1n[n+]([O-])c2ccccc2[n+]1[O-]` (centres unmarked) [SRI-012259] gave a TB MIC - UIC in the data set with Mtb H37Rv [1] of 0.52 µg/mL. Also, the 50% cytotoxic concentration (CC50) at 72 h in “in vitro” turned out to be 4.1 µg/mL (≈ 14.8 µM). Besides, in the data set with NRP Mtb H37Rv cells, the LORA MIC was determined as 0.38 µg/mL. Moreover, the minimum inhibitory concentration (MIC) in the data set on Mtb H37Rv [2] (Tables P1-P3) was 1.25 µg/mL (≈ 4.52 µM).

As to `CCC(COC)Nc1n[n+]([O-])c2ccccc2[n+]1[O-]` (centres unmarked) [SRI-012272], the TB MIC - UIC in the data set on Mtb H37Rv [1] worked out at 6.57 µg/mL. In addition, in “in vitro”, the midpoint of cytotoxicity, the CC50 at 72 h, lay at 50 µg/mL (≈ 189 µM). Moreover, in the data set on NRP Mtb H37Rv cells, the LORA MIC came out at 4.87 µg/mL. Moreover, the MIC in the data set on Mtb H37Rv [2] (Tables P1-P3) was 10 µg/mL (≈ 37.8 µM).

Regarding `CCC(COC)Nc1n[n+]([O-])c2cc(Cl)ccc2[n+]1[O-]` (centres unmarked) [Compound 15bi, 7-chloro-3-((1-methoxybutan-2-yl)amino)benzo[e][1,2,4]triazine 1,4-dioxide], the minimum inhibitory concentration (MIC) in the data set on Mtb H37Rv [1] stood at 1.4 µg/mL (≈ 4.69 µM); in the data set on NRP Mtb H37Rv cells it was 0.78 µg/mL (≈ 2.61 µM); in the data set with Mtb H37Rv [2] (Tables 1-4 and text) it was 1.2 µg/mL (≈ 4.02 µM). In “in vitro”, this compound returned a CC50 at 72 h of 2.6 µg/mL (≈ 8.7 µM).

`CCC(CC)Nc1n[n+]([O-])c2ccccc2[n+]1[O-]` [SRI-012271] displayed a TB MIC - UIC in the data set on Mtb H37Rv [1] of 3.63 µg/mL. The compound further had a CC50 at 72 h in the data set “in vitro” of 36.5 µg/mL (≈ 147 µM). Moreover, the LORA MIC in the data set on NRP Mtb H37Rv cells came out at 1.94 µg/mL. The minimum inhibitory concentration (MIC) in the data set on Mtb H37Rv [2] (Tables P1-P3) stood at 5 µg/mL (≈ 20.1 µM).

As for `C[C@@H]1[C@H]2C[C@@H](C[C@H]1Nc1n[n+]([O-])c3ccccc3[n+]1[O-])C2(C)C` (racemic) [SRI-012273], the TB MIC - UIC with Mtb H37Rv [1] was determined as 0.48 µg/mL. The cytotoxic concentration (CC50) at 72 h in the data set “in vitro” is 4.6 µg/mL (≈ 14.6 µM). The LORA MIC in the data set on NRP Mtb H37Rv cells was 0.48 µg/mL. The minimum inhibitory concentration (MIC) with Mtb H37Rv [2] (Tables P1-P3) amounted to 1.25 µg/mL (≈ 3.98 µM).

As to `CC(C)C(C)Nc1n[n+]([O-])c2ccccc2[n+]1[O-]` (centres unmarked) [SRI-012267], in the data set with Mtb H37Rv [1], the TB MIC - UIC is 1.93 µg/mL. Besides, in the data set “in vitro”, half-maximal cytotoxicity (CC50 at 72 h) was put at 21 µg/mL (≈ 84.6 µM). The compound further registered an LORA MIC in the data set with NRP Mtb H37Rv cells of 0.98 µg/mL. Also, the minimal inhibitory concentration (MIC) with Mtb H37Rv [2] (Tables P1-P3) came to 5 µg/mL (≈ 20.1 µM).

In turn, `CC(Nc1n[n+]([O-])c2ccccc2[n+]1[O-])C(C)(C)C` (centres unmarked) [SRI-012268] came in with a TB MIC - UIC in the data set with Mtb H37Rv [1] of 2.43 µg/mL. Moreover, in the data set “in vitro”, the CC50 at 72 h was found to be 20.2 µg/mL (≈ 77 µM). In the data set with NRP Mtb H37Rv cells, this compound came in with an LORA MIC of 1 µg/mL. Besides, the MIC with Mtb H37Rv [2] (Tables P1-P3) is 5 µg/mL (≈ 19.1 µM).

In the data set on Mtb H37Rv [1], `CCC(C)Nc1n[n+]([O-])c2ccccc2[n+]1[O-]` (centres unmarked) [SRI-012262] returned a TB MIC - UIC of 2 µg/mL. This compound displayed a half-maximal cytotoxic concentration (CC50) at 72 h in “in vitro” of 21.6 µg/mL (≈ 92.2 µM). This compound returned an LORA MIC in the data set on NRP Mtb H37Rv cells of 1.28 µg/mL. In addition, in the data set with Mtb H37Rv [2] (Tables P1-P3), the minimal inhibitory concentration (MIC) amounted to 2.5 µg/mL (≈ 10.7 µM).
